Experimental data from patent publication US20040214851A1, “Compositions and methods for induction of opioid receptors” (3M Innovative Properties Company, priority 2003, published 2004).
Like-named read-outs stand apart in the source and are kept apart here.

Experiments:
[1] = system: Opioid Growth Factor Receptor (OGFr); assay: Induction of OGFr mRNA in human PBMCs (GeneChip microarray); format: cell-based
Experimental: (§1) Opioid receptor inducing compounds (ORICs) were dissolved in dimethyl sulfoxide (DMSO, Sigma Chemical Company) at 5 mM concentration. PBMCs were incubated for one hour in X-VIVO 20 medium (Cambrex Bio Science, Walkersville, Md.) at 37° C. in a 5% CO2 incubator prior to incubation with ORIC prepared in DMSO or with DMSO alone (as a control). The amount of DMSO was kept below 0.1% of the total incubation volume.
(§2) PBMCs were incubated for 15, 30, 60, 120 minutes with ORIC 1. […] DMSO-treated control samples were incubated for 1 hour, 2 hours, 5 hours, 9 hours, and 16 hours.
(§3) At the end of the specified incubation time, cells were lysed and total RNA extracted using the Qiagen RNeasy MidiKit (Qiagen, Inc., Valencia, Calif.). RNA was quantified using absorbance at 260. Quality of RNA was determined from the ratio of absorbance measured at OD260 and OD280 and from the ratio of 18S and 28S bands in RNA 6000 Nano Chip gels run on the Agilent 2100 Bioanalyzer (Agilent Technologies, Inc., Palo Alto, Calif.).
RNA was reverse transcribed to cDNA using a Superscript cDNA synthesis kit (Invitrogen Corporation, Carlsbad, Calif.) using an HPLC-purified T7-(dT)24 primer (Genset SA, Paris, France). Labeled cRNA was prepared from double-stranded cDNA by in vitro transcription using an Enzo BioArray High Yield RNA Transcript Labeling Kit in the presence of biotin-11-CTP and biotin-16-UTP (Enzo Diagnostics, Inc., Farmingdale, N.Y.), and purified using an RNeasy MiniKit (Qiagen, Inc.). 10 or 15 μg of biotinylated cRNA were fragmented and hybridized to HG-U95A or U133A GeneChip® arrays (Affymetrix, Santa Clara, Calif.) containing probe sets representing 12,000 genes (HG-U95A) or 22,000 genes (U133A). Chips were hybridized, washed, and stained according to the Affymetrix protocols.
Images were scanned using the Agilent Gene Array Scanner (Agilent Technologies, Inc., Palo Alto, Calif.), and processed using Affymetrix Microarray Suite (MS 4.0 or MS 5.0) software. The total fluorescence intensity of each image was scaled to 500 to enable comparison of different images. The image at each time point was analyzed relative to the appropriate control in order to calculate changes in expression for each gene. Changes in gene expression were deemed significant if the p value for detection and change in expression were <0.05.

[2] = system: melanoma cell line B16-F10; assay: B16-F10 melanoma lung tumor model in C57/BL6 mice; format: in vivo; settings: B16-F10 i.v.
Experimental: C57/BL6 mice are injected on Day 0 intravenously with melanoma cell line B16-F10 (5×10^5). On day 5 and lasting through day 19, mice are injected intraperitoneally every other day with either (a) PBS (control), (b) 10 mg/kg of ORIC2, (c) 10 mg/kg [Met^5]-enkephalin, or (d) both.
On Day 20, half the mice are sacrificed and the lungs are removed and weighed. Percent inhibition of lung tumor growth is determined according to the formula:
Placebo weight−Treatment weight×100 Placebo weight

[3] = system: μ-opioid receptor; assay: Induction of μ-opioid receptor mRNA in human PBMCs (GeneChip microarray); format: cell-based
Experimental: as §1, §2, §3
RNA was reverse transcribed to cDNA using a Superscript cDNA synthesis kit (Invitrogen Corporation, Carlsbad, Calif.) using an HPLC-purified T7-(dT)24 primer (Genset SA, Paris, France). Labeled cRNA was prepared from double-stranded cDNA by in vitro transcription using an Enzo BioArray High Yield RNA Transcript Labeling Kit in the presence of biotin-11-CTP and biotin-16-UTP (Enzo Diagnostics, Inc., Farmingdale, N.Y.), and purified using an RNeasy MiniKit (Qiagen, Inc.). […]
Images were scanned using the Agilent Gene Array Scanner (Agilent Technologies, Inc., Palo Alto, Calif.), and processed using Affymetrix Microarray Suite (MS 4.0 or MS 5.0) software. The total fluorescence intensity of each image was scaled to 500 to enable comparison of different images. The image at each time point was analyzed relative to the appropriate control in order to calculate changes in expression for each gene. […]

[4] = system: lung cancer; assay: Human subjects with lung cancer, tumor size by CT scan and survival; format: in vivo
Experimental: Human subjects with lung cancer are injected intravenously with a placebo (control), ORIC5 (10 mg/kg), or both ORIC5 (10 mg/kg) and OGF (1 mg/kg) three times a week for eight weeks. Tumor size is measured by CT scan.

[5] = human PBMCs, 5 μM ORIC 1 (FIG. 1), 1 μM ORIC 2, 5 μM ORIC 3, 0.1 μM ORIC 4, (FIG. 2)
[6] = human PBMCs, 1 μM ORIC 2, 5 μM ORIC 3, 0.1 μM ORIC 4, FIG. 3

SMILES | induction of OGFr (mRNA) [1] | induction of OGFr (mRNA) [1, 5] | induction of the μ-opioid receptor (mRNA) [3, 6] | other results
CC(C)Cn1cnc2c(N)nc3ccccc3c21 [ORIC1, 1-(2-methylpropyl)-1H-imidazo[4,5-c]quinolin-4-amine] | induction | – | – | –
CCOCc1nc2c(N)nc3c(c2n1CC(C)(C)O)CCCC3 [ORIC2, 4-amino-2-(ethoxymethyl)-α,α-dimethyl-6,7,8,9-tetrahydro-1H-imidazo[4,5-c]quinoline-1-ethanol] | – | induction | induction | inhibition of tumor growth in the lung ([2]; 10 mg/kg i.p. every other day, day 5 to 19, lungs weighed Day 20, vs placebo): increased inhibition of tumor growth in the lung; survival ([2]; monitored through Day 75, vs placebo): enhanced survival
CCCCc1nc2c(N)nc3ccccc3c2n1CCCCNS(C)(=O)=O [ORIC4, N-[4-(4-amino-2-butyl-1H-imidazo[4,5-c]quinolin-1-yl)butyl]methanesulfonamide] | – | induction | induction | –
Cc1nc2c(N)nc3c(c2n1CCCCNC(=O)N1CCOCC1)CCCC3 [ORIC5, N-[4-(4-amino-2-methyl-6,7,8,9,-tetrahydro-1H-imidazo[4,5-c]quinolin-1-yl)butyl]morpholine-4-carboxamide] | induction | – | – | tumor size by CT scan ([4]; i.v. three times a week for eight weeks, at eight weeks vs prior to treatment): measurably smaller; five-year survival rate ([4]; vs control group): greater; induction of the μ-opioid receptor (mRNA) [3]: induction
